The text below walks through data of ChEMBL document CHEMBL3994634, “Synthesis of new chromeno-carbamodithioate derivatives and preliminary evaluation of their antioxidant activity and molecular docking studies” (Bioorg Med Chem Lett, 2017).

Experiment [1] is described as follows: Antioxidant activity assessed as inhibition of […] radical by spectrophotometric method. Type of experiment: functional.
Experiment [2] can be described thus: Antioxidant activity assessed as […] radical scavenging activity by spectrophotometric method relative to control. Type of experiment: functional. Set-up: concentration or dose not given beside the values.

With `Cc1oc2cc(OCC(O)CSC(=S)N3CCN(c4ccccc4)CC3)ccc2c(=O)c1C` (stereo not given), in experiment [1], the IC50 was 2240 µM. Moreover, the Activity in experiment [2] is 24.8%.
For `Cc1oc2cc(OCC(O)CSC(=S)N3CCC(Cc4ccccc4)CC3)ccc2c(=O)c1C` (stereo not given), in that order: 1570 µM and 31.8%.
As for `Cc1oc2cc(OCC(O)CSC(=S)N3CCN(C)CC3)ccc2c(=O)c1C` (stereo not given), the 50% inhibitory concentration (IC50) in experiment [1] was 1720 µM. In experiment [2], the Activity came to 29.4%.
Take `Cc1oc2cc(OCC(O)CSC(=S)N3CCN(C(c4ccccc4)c4ccccc4)CC3)ccc2c(=O)c1C` (stereo not given): in experiment [1], the IC50 is 1620 µM. The Activity in experiment [2] came to 30.9%.
In the case of `Cc1oc2cc(OCC(O)CSC(=S)N3CCOCC3)ccc2c(=O)c1C` (stereo not given), the IC50 in experiment [1] amounted to 1400 µM. The Activity in experiment [2] turned out to be 35.6%.
For the molecule `Cc1oc2cc(OCC(O)CSC(=S)N3CCN(Cc4ccc5c(c4)OCO5)CC3)ccc2c(=O)c1C` (stereo not given), in experiment [1], the IC50 was found to be 1380 µM. In experiment [2], the Activity was found to be 36.8%.
`Cc1oc2cc(OCC(O)CSC(=S)N3CCN(c4ccc(F)cc4)CC3)ccc2c(=O)c1C` (stereo not given): the IC50 in experiment [1] was 2040 µM. Besides, the Activity in experiment [2] worked out at 24.8%.
The like results for `COc1ccccc1N1CCN(C(=S)SCC(O)COc2ccc3c(=O)c(C)c(C)oc3c2)CC1` (stereo not given) were, in that order, 1590 µM and 31.6%.
For `CCN(CC)C(=S)SCC(O)COc1ccc2c(=O)c(C)c(C)oc2c1` (stereo not given), in that order: 1710 µM and 29.5%.
Turning to `O=C1O[C@H]([C@@H](O)CO)C(O)=C1O` [ASCORBIC ACID], in experiment [1], the IC50 came to 1640 µM. Besides, the Activity in experiment [2] is 30.4%.

What is called IC50 is the concentration that inhibits the measured activity by half.
